Reference: patent US10874636B2, “Application of substituted cinnamamide derivatives in preparation of anti-anxiety medication” (TASLY PHARMACEUTICAL GROUP CO., LTD., priority 2016, dated 2020)

What was measured:
rats = assay: Drinking conflict experiment for rats (Vogel test); assay type: in vivo, SD male rats; conditions: for Effect on water licks of the rats during the punished session compared with the solvent control groups: 5 mg/kg intragastric for 10 days, in words; for Water licks of rats during punished session: 5 mg/kg intragastric once a day for 10 days, test half an hour after final administration, 3 minutes, 0.3 mA, x±S
Experimental: 230 SD male rats with the weight of 180-220 g were taken and fed adaptively for 1 week. Then, these rats were divided, at random, into 19 groups based on their weights, 12-13 rats in each group. Intragastric administration was conducted one a day according to the drugs and dosages listed in Table 2, which lasted for 10 consecutive days. Water deprivation 48 hours before the final administration, and non-punitive drinking training was conducted on the 9th day; on the 10th day, half an hour after the final intragastric administration of all the groups, the punitive experimental test was conducted.
On the first stage (non-punitive drinking training): after water deprivation for 24 hours, the rats were placed in operation boxes individually to explore thoroughly, until they found bottle mouths and began to lick water, water licks of the rats within 3 minutes under the conditions of no electric shock (the condition was set as follows: the strength of electric shock was 0 mA) were automatically recorded by counters, and rats whose water licks were less than 300 were eliminated. On the second stage (punitive experiment): the above rats which were not eliminated were placed in the operation boxes after continuing the water deprivation for 24 hours (48 hours in total). The rats could find the bottle mouths rapidly and begin to lick water, the instruments began to time automatically and imparted one electric shock (the ratio of licks to the number of electric shocks was 20:1) while the water licks reached to 20, wherein the strength of electric shocks was 0.3 mA, lasting for 2 seconds, but these rats may control the length of the time for which they were electrically shocked by keeping away from the bottle mouths. Water licks of the rats during the punished session (3 minutes) were recorded.
Observational indexes of the Vogel drinking conflict model: water licks of the rats during the punished session.

mice = assay: Elevated plus-maze test for mice; assay type: in vivo, ICR male mice; conditions: 10 mg/kg intragastric for 1 week; in words
Experimental: 247 ICR male mice aged 6-8 weeks with the weight of 18-22 g were taken and fed adaptively for 1 week. Then, these mice were evenly divided, at random, into 19 groups based on their weights. Intragastric administration was conducted once a day according to the drugs and dosages listed in Table 1, which lasted for 7 consecutive days. 20 minutes after administration on the 7th day, the elevated plus-maze test was conducted.
The elevated plus-maze (EPM) for mice were composed of two opposite open arms (50 cm×10 cm) and two opposite enclosed arms (50 cm×10 cm×40 cm), wherein upper portions of the enclosed arms were not capped, an open portion of 10 cm×10 cm was located in the middle of the maze, and the maze was 50 cm away from the ground. The test was conducted in a quite environment at a time period ranging from 13:00 to 18:00.
The open-arms entries (OE) and enclosed-arms entries, as well as the residence time in two arms, of the mice, within 5 minutes, were recorded respectively, and the percentage of the open-arms entries (OE %) and that of the open-arms time (OT %) for each group of mice with respect to the total entries into the two arms and the total residence time in the two arms therein were calculated respectively.
Analysis was conducted using SPSS 11.5 software, and data were represented by x±S, the significance of differences between groups was compared using the analysis of variance, differences were significant while P was less than 0.05.

Row | Compound | Effect on water licks of the rats during the punished session compared with the solvent control groups (rats) | Water licks of rats during punished session (rats) | Effect on open-arms entries of the mice compared with the solvent control groups (mice) | Effect on open-arms time of the mice compared with the solvent control groups (mice)
1 | CC(C)CNC(=O)/C=C/C=C/CCc1cc2c(c(C(F)(F)F)c1)OCO2 [II-14, (2E, 4E)-N-isobutyl-7-(5′-trifluoromethyl-3′,4′-methylenedioxyphenyl)-2,4-heptadiene amide] | increase water licks of the rats during the punished session | 368.00 ± 47.38 | increase the open-arms entries of the mice | prolong their open-arms time
2 | CN1CCN(C(=O)/C=C/C=C/CCc2cc3c(c(C(F)(F)F)c2)OCO3)CC1.Cl [II-15, (2E,4E)-N-(4-methylpiperazinyl)-7-(5′-trifluoromethyl-3′,4′-methylenedioxyphenyl)-2,4-heptadiene amide hydrochloride] | increase water licks of the rats during the punished session | 412.25 ± 42.90 | increase the open-arms entries of the mice | prolong their open-arms time
3 | COc1cc(/C=C/C(=O)NCC(C)C)cc(C(F)(F)F)c1OC [III-2, 3′,4′-dimethoxy-5′-trifluoromethyl-cinnamic acid isobutylamide] | increase water licks of the rats during the punished session | 368.00 ± 39.59 | increase the open-arms entries of the mice | prolong their open-arms time
4 | COc1c(O)cc(/C=C/C(=O)NCC(C)C)cc1C(F)(F)F [III-4, 3′-hydroxyl-4′-methoxy-5′-trifluoromethyl-cinnamic acid isobutylamide] | increase water licks of the rats during the punished session | 394.22 ± 50.29 | increase the open-arms entries of the mice | prolong their open-arms time
5 | CC(C)CNC(=O)/C=C/c1cc(O)c(O)c(C(F)(F)F)c1 [III-7, 3′,4′-dihydroxyl-5′-trifluoromethyl-cinnamic acid isobutylamide] | increase water licks of the rats during the punished session | 378.33 ± 54.97 | increase the open-arms entries of the mice | prolong their open-arms time
6 | O=C(/C=C/c1cc(O)c(O)c(C(F)(F)F)c1)N1CCCCC1 [III-9, 3′,4′-dihydroxyl-5′-trifluoromethyl-cinnamyl piperidine] | increase water licks of the rats during the punished session | 363.56 ± 39.70 | increase the open-arms entries of the mice | prolong their open-arms time
7 | CC(C)CNC(=O)CCc1cc(O)c(O)c(C(F)(F)F)c1 [III-10, 3-(3′,4′-dihydroxyl-5′-trifluoromethylphenyl)-propionic acid isobutylamide] | increase water licks of the rats during the punished session | 369.00 ± 44.83 | increase the open-arms entries of the mice | prolong their open-arms time
8 | CC(C)CNC(=O)c1cc(O)c(O)c(C(F)(F)F)c1 [III-11, 3,4-dihydroxyl-5-trifluoromethyl-benzoic acid isobutylamide] | increase water licks of the rats during the punished session | 361.13 ± 38.38 | increase the open-arms entries of the mice | prolong their open-arms time
9 | COc1cc(/C=C/C=C/C(=O)NCC(C)C)cc(C(F)(F)F)c1OC [III-13, 5-(5′-trifluoromethyl-3′,4′-dimethoxyphenyl) pentadienoic acid isobutylamide] | increase water licks of the rats during the punished session | 375.67 ± 58.13 | increase the open-arms entries of the mice | prolong their open-arms time
10 | N-methyl-(5′-trifluoromethyl-3′,4′-methylenedioxy)-amphetamine hydrochloride [II-16] | increase water licks of the rats during the punished session | 406.56 ± 65.38 | increase the open-arms entries of the mice | prolong their open-arms time
